Paper PMC10686989, “Distinct activation mechanisms of β-arrestin-1 revealed by ^19F NMR spectroscopy” (Nature Communications, 2023)

Target: T1, βarr1 (Homo sapiens, UniProt P49407, C125S/C140L/C150V/C242V/C251V/C269S/C59V/D390C)
T1 construct: we started from a full-length functional cysteine-less βarr1 construct[20]; 6xHis-tag with SSG linker and thrombin cleavage site (N, cleaved yes); made in house; host or cells: E. coli BL21(DE3)
Assay: 19F NMR titration of V2Rpp or PIP2 into βarr1 (activation)
Format: biochemical
Conditions: V2Rpp up to 1.2:1, PIP2 up to 3.0:1 molar ratio
Method: All ^19F NMR spectra were recorded at 298 K using a Bruker AVANCE III HD 800 MHz spectrometer equipped with a ^1H-^19F/^13C/^15N TCI triple resonance cryogenic probe. All data were acquired and processed using the Bruker Topspin 4.2.0 software. For all 1D ^19F NMR experiments, the traditional one-pulse sequence was used. The carrier frequency was set to −68.0 ppm and the spectra were recorded with 4k points and a spectral width of 15,000 Hz. Because accurate calibration of the 90° excitation pulse length for individual samples is not practical due to the low protein concentrations, we used the 90° pulse length calibrated from a standard sample (0.05% Trifluoro-toluene in CDCl3) for all βarr1 samples. […] Therefore, all the ^19F experiments were conducted with a 100 ms relaxation delay, and acquired using 100,000–200,000 scans depending on the sample condition, yielding a signal-to-noise (S/N) ratio of approximately 50. […]
All NMR data were analyzed using the MestraNova 12.0.0 software (https://mnova.pl). […] Peak intensities, integrated peak area and linewidths were determined based on the fitted results. […]
(c) Estimation of the V2Rpp-βarr1 binding affinity based on peak intensity changes of the D390C site of βarr1 titrated with V2Rpp. […] The values of θ were calculated as by θ = V-,⁄(V-. + V-,), in which VS1 and VS2 correspond to the volume integrals of the peaks of S1 and S2 states, respectively. […]

T1 sequence (P49407 whole entry C59V/C125S/C140L/C150V/C242V/C251V/C269S/D390C): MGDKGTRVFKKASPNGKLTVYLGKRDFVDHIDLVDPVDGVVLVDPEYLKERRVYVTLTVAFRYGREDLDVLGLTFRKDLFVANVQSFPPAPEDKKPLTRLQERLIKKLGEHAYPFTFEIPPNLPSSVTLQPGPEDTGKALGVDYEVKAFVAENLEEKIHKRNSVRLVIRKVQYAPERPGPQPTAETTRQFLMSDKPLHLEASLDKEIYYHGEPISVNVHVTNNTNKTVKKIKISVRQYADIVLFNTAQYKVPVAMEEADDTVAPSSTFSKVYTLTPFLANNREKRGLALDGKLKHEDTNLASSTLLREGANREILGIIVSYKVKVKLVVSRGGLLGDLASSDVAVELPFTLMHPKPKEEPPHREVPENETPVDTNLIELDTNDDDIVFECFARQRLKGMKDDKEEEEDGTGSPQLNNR

CCCCCCCC(=O)OC[C@H](COP(=O)(O)O[C@@H]1[C@H](O)[C@H](O)[C@@H](OP(=O)(O)O)[C@H](OP(=O)(O)O)[C@H]1O)OC(=O)CCCCCCC [PIP2, diC8-PI(4,5)P2]
Activation of βarr1 at D390C on titration (D390C site): minimally affects | Activation of βarr1 at H295C on titration (H295C site): partially activates
